Assay results as given in article PMC9643456, “Matching amino acids membrane preference profile to improve activity of antimicrobial peptides” (Communications Biology, 2022).
Square brackets hold non-standard residues; d marks the D form. Peptide text beside a SMILES is read from it.

What was measured:
A. baumannii strains = experiment: microbe, parasite or virus in culture
Description: Twenty-six A. baumannii strains were clinically isolated and gifted to us by the Kyungpook National University School of Medicine. One A. baumannii strain (ATCC 17978) was purchased and gifted to us by Kyungpook National University School of Medicine. One A. baumannii strain and 10 K. pneumoniae strains (NCCP) were purchased from the National Culture Collection for Pathogens.
To assess antimicrobial activity, the MIC50 and MIC90 were measured using broth microdilution following CLSI guidelines. […] Each experiment was performed in triplicate. Meropenem (Sigma, Darmstadt, Germany) and colistin were used as control antibiotics. Cation-adjusted Mueller–Hinton broth (CAMHB) (Becton, Dickinson and Company, Franklin Lakes, USA) with supplied calcium (50 mg/L) and magnesium (10 mg/L) was used for the CLSI-test condition. Bacteria in midlog phase and peptides were separately diluted in CAMHB. The bacteria and peptide solutions were then mixed in 96-well polyethylene plates (SPL, Gyeonggi-do, Korea) and incubated for 18 h at 37 °C. The final concentration for bacteria was 5 × 10^5 CFU/ml. […] The MIC was defined to be the lowest concentration of peptide without visible turbidity by comparing with control antibiotics with the unaided eye. […] Each experiment was performed in triplicate. MICs in albumin and acetic acid solutions were measured using the same protocol but with 0.2% bovine serum albumin (Bovogen, Keilor, Australia), 0.01% acetic acid (Merck, New Jersey, USA), and CAMHB with both calcium and magnesium. In addition, MICs used in the antibiotic resistance acquisition test, the outer–inner membrane permeation test, and the transmembrane potential test and for FE-SEM were individually determined. The final bacterial concentrations used were as follows: for resistance acquisition, optical density (OD) 0.01; for outer–inner membrane permeability assays (LB), OD 0.1; for the transmembrane potential test, 1 × 10^8 CFU/ml (OD 0.171); […]. Inhibitory activity unidentifiable by direct observation was determined by counting the CFUs. Each experiment was performed at least twice.

human red blood cells = experiment: Hemolytic activity; assay type: cell-based; conditions: red cells of human, 18 h
Outline: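 Peptides (100 μM down to 0.78 μM) were incubated with 4% final human erythrocytes in PBS for 18 h at 37 °C. Supernatant absorbance at 540 nm after centrifugation was scaled to 1% Triton X-100 (100%) and no peptide (0%); melittin served as positive control; triplicate runs.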

CC[C@@H](C)[C@@H](NC(=O)[C@@H](Cc1c[nH]c2ccccc12)NC(=O)[C@@H](CCCNC(=N)N)NC(=O)[C@@H](CCCNC(=N)N)NC(=O)[C@H](N)CCCNC(=N)N)C(=O)N[C@H](Cc1c[nH]c2ccccc12)C(=O)N[C@@H](C(=O)N[C@@H](C(=O)N[C@H](Cc1c[nH]c2ccccc12)C(=O)N[C@H](CCCCN)C(N)=O)[C@H](C)CC)C(C)C [WCopW43] (H-[dR][dR][dR][dW][dI][dW][dV][dI][dW][dK]-NH2)
15: Number of A. baumannii strains at MIC (μM) 0.63 (A. baumannii strains; of 30 strains)
14: Number of A. baumannii strains at MIC (μM) 1.25 (A. baumannii strains; of 30 strains)
0: Number of A. baumannii strains at MIC (μM) 2.5 (A. baumannii strains; of 30 strains) | Number of A. baumannii strains at MIC (μM) 5 (A. baumannii strains; of 30 strains) | Number of A. baumannii strains at MIC (μM) 10 (A. baumannii strains; of 30 strains) | Number of A. baumannii strains at MIC (μM) ≥20 (A. baumannii strains; of 30 strains)
1: Number of A. baumannii strains at MIC (μM) ≤0.31 (A. baumannii strains; of 30 strains)
< 0.31 µM: MIC, A. baumannii Isolated strain 76 (A. baumannii strains; strains, 18 h)
0.63 µM: MIC50 (A. baumannii strains; strains, 18 h) | MIC, A. baumannii Isolated strain 6 (A. baumannii strains; strains, 18 h) | MIC, A. baumannii Isolated strain 10 (A. baumannii strains; strains, 18 h) | MIC, A. baumannii Isolated strain 15 (A. baumannii strains; strains, 18 h) | MIC, A. baumannii Isolated strain 19 (A. baumannii strains; strains, 18 h) | MIC, A. baumannii Isolated strain 22 (A. baumannii strains; strains, 18 h) | MIC, A. baumannii Isolated strain 39 (A. baumannii strains; strains, 18 h) | MIC, A. baumannii Isolated strain 69 (A. baumannii strains; strains, 18 h) | MIC, A. baumannii Isolated strain 71 (A. baumannii strains; strains, 18 h) | MIC, A. baumannii Isolated strain 80 (A. baumannii strains; strains, 18 h) | MIC, A. baumannii Isolated strain 82 (A. baumannii strains; strains, 18 h) | MIC, A. baumannii Isolated strain 86 (A. baumannii strains; strains, 18 h) | MIC, A. baumannii Isolated strain 102 (A. baumannii strains; strains, 18 h) | MIC, A. baumannii Isolated strain 141 (A. baumannii strains; strains, 18 h) | MIC, A. baumannii Isolated strain 152 (A. baumannii strains; strains, 18 h) | MIC, A. baumannii KCCM 40203 (A. baumannii strains; strains, 18 h)
5.02 ±0.63%: Hemolysis percent, 100 μM (human red blood cells; 100)
1.25 µM: MIC, A. baumannii ATCC 17978 (A. baumannii strains; strains, 18 h) | MIC, A. baumannii Isolated strain 1 (A. baumannii strains; strains, 18 h) | MIC, A. baumannii Isolated strain 3 (A. baumannii strains; strains, 18 h) | MIC, A. baumannii Isolated strain 14 (A. baumannii strains; strains, 18 h) | MIC, A. baumannii Isolated strain 16 (A. baumannii strains; strains, 18 h) | MIC, A. baumannii Isolated strain 44 (A. baumannii strains; strains, 18 h) | MIC, A. baumannii Isolated strain 66 (A. baumannii strains; strains, 18 h) | MIC, A. baumannii Isolated strain 68 (A. baumannii strains; strains, 18 h) | MIC, A. baumannii Isolated strain 89 (A. baumannii strains; strains, 18 h) | MIC, A. baumannii Isolated strain 127 (A. baumannii strains; strains, 18 h) | MIC, A. baumannii Isolated strain 144 (A. baumannii strains; strains, 18 h) | MIC, A. baumannii Isolated strain 147 (A. baumannii strains; strains, 18 h) | MIC, A. baumannii NCCP 14654 (A. baumannii strains; strains, 18 h)
2.22 ± 0.67%: Hemolysis percent, 50 μM (human red blood cells; 50)
1.12 ± 0.20%: Hemolysis percent, 25 μM (human red blood cells; 25)
